The nature of test [1]: Inhibition of Dictyostelium discoideum myosin 2 motor domain-activated ATPase activity by spectrophotometry based PK/LDH coupled ATPase assay.
Test [2] addresses Unconventional myosin-Va (Gallus gallus, UniProt Q02440). As to the kind of experiment: Inhibition of chicken myosin 5a assessed as ATP hydrolysis.
Test [3] is described as follows: Inhibition of Dictyostelium discoideum myosin 1b ATPase activity by spectrophotometric analysis.

Molecules are shown by their SMILES.

Sequence of Unconventional myosin-Va (Q02440 whole entry): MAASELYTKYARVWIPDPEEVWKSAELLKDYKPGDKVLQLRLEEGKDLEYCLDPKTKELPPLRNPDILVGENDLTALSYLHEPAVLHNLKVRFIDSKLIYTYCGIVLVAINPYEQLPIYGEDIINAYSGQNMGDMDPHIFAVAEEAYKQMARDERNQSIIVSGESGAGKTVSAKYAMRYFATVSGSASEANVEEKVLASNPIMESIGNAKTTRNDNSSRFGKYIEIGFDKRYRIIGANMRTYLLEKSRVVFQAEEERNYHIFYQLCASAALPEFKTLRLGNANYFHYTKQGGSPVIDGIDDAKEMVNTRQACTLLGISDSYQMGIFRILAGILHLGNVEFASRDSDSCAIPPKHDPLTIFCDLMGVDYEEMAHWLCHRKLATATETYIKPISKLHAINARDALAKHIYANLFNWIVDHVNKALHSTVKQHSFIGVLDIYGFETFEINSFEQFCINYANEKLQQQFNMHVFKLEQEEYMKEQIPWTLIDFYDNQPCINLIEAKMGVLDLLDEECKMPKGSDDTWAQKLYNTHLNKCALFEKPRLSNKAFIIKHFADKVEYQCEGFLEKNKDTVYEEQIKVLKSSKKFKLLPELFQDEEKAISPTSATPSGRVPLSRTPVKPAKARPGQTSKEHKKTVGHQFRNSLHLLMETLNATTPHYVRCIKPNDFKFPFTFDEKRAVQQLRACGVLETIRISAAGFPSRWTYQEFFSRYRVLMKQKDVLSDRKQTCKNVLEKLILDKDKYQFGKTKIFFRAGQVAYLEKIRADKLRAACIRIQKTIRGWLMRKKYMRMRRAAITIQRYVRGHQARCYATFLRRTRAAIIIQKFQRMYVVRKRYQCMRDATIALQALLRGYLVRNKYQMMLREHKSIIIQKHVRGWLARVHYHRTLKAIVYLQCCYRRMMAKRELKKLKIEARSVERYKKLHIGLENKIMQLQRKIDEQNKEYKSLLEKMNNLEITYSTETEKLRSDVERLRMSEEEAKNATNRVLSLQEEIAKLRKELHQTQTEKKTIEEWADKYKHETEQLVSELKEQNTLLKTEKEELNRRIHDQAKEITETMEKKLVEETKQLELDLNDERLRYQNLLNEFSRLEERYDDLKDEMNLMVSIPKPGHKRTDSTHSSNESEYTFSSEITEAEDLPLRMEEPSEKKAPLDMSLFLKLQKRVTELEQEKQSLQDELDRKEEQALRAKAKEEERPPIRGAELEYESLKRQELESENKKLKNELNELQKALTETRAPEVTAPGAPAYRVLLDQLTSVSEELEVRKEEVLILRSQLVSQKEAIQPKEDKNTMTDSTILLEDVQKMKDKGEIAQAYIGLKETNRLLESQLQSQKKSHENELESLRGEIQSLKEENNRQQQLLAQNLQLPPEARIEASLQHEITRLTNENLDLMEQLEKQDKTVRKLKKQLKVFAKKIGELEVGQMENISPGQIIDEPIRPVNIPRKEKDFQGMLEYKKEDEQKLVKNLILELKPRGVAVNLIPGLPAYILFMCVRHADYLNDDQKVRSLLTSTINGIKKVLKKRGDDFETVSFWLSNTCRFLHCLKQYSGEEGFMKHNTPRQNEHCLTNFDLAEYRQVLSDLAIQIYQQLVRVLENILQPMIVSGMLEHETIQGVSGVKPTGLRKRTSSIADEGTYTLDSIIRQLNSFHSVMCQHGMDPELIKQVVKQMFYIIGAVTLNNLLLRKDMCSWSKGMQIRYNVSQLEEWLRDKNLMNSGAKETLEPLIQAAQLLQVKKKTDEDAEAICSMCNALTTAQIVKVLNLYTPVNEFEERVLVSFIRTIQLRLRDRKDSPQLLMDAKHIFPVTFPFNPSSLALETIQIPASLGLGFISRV

For orientation: IC50 means the concentration at which inhibition is half-maximal. `Oc1ccccc1-c1ccc[nH]1` yielded an IC50 in test [1] of over 1000 µM.
Same read-out and setting: to `COc1ccccc1-c1ccc[nH]1` belongs over 1000 µM; to `COc1c(Br)cc(Br)cc1-c1[nH]c(Br)c(Br)c1Br`, 91.9 µM.
Still for that read-out and setting: to `Cn1c(Br)c(Br)c(Br)c1-c1cc(Br)cc(Br)c1O` belongs 125 µM; to `COc1ccccc1-c1[nH]c(Br)c(Br)c1Br`, 182 µM; to `COc1c(Cl)cc(Cl)cc1-c1[nH]c(Cl)c(Cl)c1Cl`, 274 µM.
As for `Oc1c(Br)cc(Br)cc1-c1[nH]c(Br)c(Br)c1Br` [PENTABROMOPSEUDILIN], the IC50 in test [2] is 1.2 µM; in test [1], 24.4 µM.
In the case of `Oc1c(Cl)cc(Cl)cc1-c1[nH]c(Cl)c(Cl)c1Cl` [PENTACHLOROPSEUDILIN], the IC50 in test [3] came to 1 µM; in test [1], 126 µM.

The values above are taken from ChEMBL document CHEMBL1781890, “Inhibition of Myosin ATPase activity by halogenated pseudilins: a structure-activity study” (J Med Chem, 2011).
